Our source for the melting point values is patent US7173040B2, “Farnesyl transferase inhibiting 6-[(substituted phenyl)methyl]-quinoline and quinazoline derinazoline derivatives” (Janssen Pharmaceutica N.V., priority 2000, dated 2007).

Where only a bound is given, the exact number is not on record here.

The molecule `Cn1cnnc1C(O)(c1ccc(Cl)cc1)c1ccc2[nH]c(=O)cc(-c3cccc(Cl)c3)c2c1` (stereo not shown) [Example B32, 4-(3-chlorophenyl)-6-[(4-chlorophenyl)hydroxy(4-methyl-4H-1,2,4-triazol-3-yl)methyl]-2(1H)-quinolinone] registered a melting point greater than 260 °C.

On to `Cn1cnnc1C(O)(c1ccc(Cl)cc1)c1ccc2c(c1)c(-c1cccc(Cl)c1)cc(=O)n2Cc1ccc(C#N)cc1` (stereo not shown) [Example B33, 4-[[4-(3-chlorophenyl)-6-[(4-chlorophenyl)hydroxy(4-methyl-4H-1,2,4-triazol-3-yl)methyl]-2-oxo-1(2H)-quinolinyl]methyl]-benzonitrile], for which the melting point was found to be 185 °C.

Molecule `Cn1cnnc1C(C)(c1ccc(Cl)cc1)c1ccc2c(c1)c(-c1cccc(Cl)c1)cc(=O)n2C.O=C(O)C(=O)O` (stereo not shown) [Example B34, 4-(3-chlorophenyl)-6-[1-(4-chlorophenyl)-1-(4-methyl-4H-1,2,4-triazol-3-yl)ethyl]-1-methyl-2(1H)-quinolinone ethanedioate (1:1)] yielded a melting point of 130 °C.

Consider `CCOC(=O)c1cn2c(cc(-c3cccc(Cl)c3)c3cc(C(c4ccc(Cl)cc4)c4nncn4C)ccc32)n1` (stereo not shown) [Example B35, ethyl 5-(3-chlorophenyl)-7-[(4-chlorophenyl)(4-methyl-4H-1,2,4-triazol-3-yl)methyl]-imidazo[1,2-a]quinoline-2-carboxylate], for which the melting point turned out to be 220 °C.

In turn, `Cn1cncc1C(O)(c1ccc(C=O)cc1)c1ccc2c(c1)c(-c1cccc(Cl)c1)nc1nnnn12` (stereo not shown) [Example B38, 4-[[5-(3-chlorophenyl)tetrazolo[1,5-a]quinazolin-7-yl]hydroxy(1-methyl-1H-imidazol-5-yl)methyl]-benzaldehyde] gave a melting point of 170 °C.

`Cn1c(=O)cc(-c2cccc(Cl)c2)c2cc(C(O)(c3ccc(Cl)cc3)c3cnccc3Cl)ccc21` (stereo not shown) [Example B39, 4-(3-chlorophenyl)-6-[(4-chlorophenyl)(4-chloro-3-pyridinyl)hydroxymethyl]-1-methyl-2(1H)-quinolinone]: the melting point is 178 °C.

In turn, `Cn1c(=O)cc(-c2cccc(Cl)c2)c2cc(C(N)(c3ccc(Cl)cc3)c3cnccc3Cl)ccc21` (stereo not shown) [Example B40b, 6-[amino(4-chlorophenyl)(4-chloro-3-pyridinyl)methyl]-4(3-chlorophenyl)-1-methyl-2(1H)-quinolinone] showed a melting point of 180 °C.

With `Cn1cncc1C(N)(c1ccc(C#N)cc1)c1ccc2c(c1)c(-c1cccc(Cl)c1)cc(=O)n2C` (stereo not shown) [Example B41d, 4-[amino[4-(3-chlorophenyl)-1,2-dihydro-1-methyl-2-oxo-6quinolinyl](1-methyl-1H-imidazol-5-yl)methyl]-benzonitrile], the melting point was 245 °C.

Take `Cn1cncc1C(N)(c1ccc(CN)cc1)c1ccc2c(c1)c(-c1cccc(Cl)c1)cc(=O)n2C` (stereo not shown) [Example B41e, 6-[amino[4-(aminomethyl)phenyl](1-methyl-1H-imidazol-5-yl)methyl]-4-(3-chlorophenyl)-1-methyl-2(1H)-quinolinone]: the melting point amounted to 150 °C.

Turning to `Cn1c(=O)cc(-c2cccc(Cl)c2)c2cc(C(O)(c3ccc(Cl)cc3)c3cnccc3N)ccc21` (stereo not shown) [Example B42, 6-[(4amino-3-pyridinyl)(4-chlorophenyl)hydroxymethyl]-4-(3-chlorophenyl)-1-methyl-2(1H)-quinolinone], the melting point is 262 °C.

Consider `CC(C)OC(=O)c1cccc(C(O)(c2ccc3c(c2)c(-c2cccc(Cl)c2)cc(=O)n3C)c2cncn2C)c1` (stereo not shown) [Example B45a, 1-methylethyl 3-[[4-(3-chlorophenyl)-1,2-dihydro-1-methyl-2-oxo-6-quinolinyl]hydroxy(1-methyl-1H-imidazol-5-yl)methyl]-benzoate], for which the melting point worked out at 150 °C.

`Cn1cncc1C(O)(c1cccc(CO)c1)c1ccc2c(c1)c(-c1cccc(Cl)c1)cc(=O)n2C` (stereo not shown) [Example B45b, 4-(3-chlorophenyl)-6-[hydroxy[3-(hydroxymethyl)phenyl](1-methyl-1H-imidazol-5-yl)methyl]-1-methyl-2(1H)-quinolinone]: the melting point is 150 °C.

`Cn1cnnc1C(O)(c1ccc(I)cc1)c1ccc2c(c1)C(c1cccc(Cl)c1)Nc1nnnn1-2` (stereo not drawn) [Example B46, 5-(3-chlorophenyl)-4,5-dihydro-α-(4-iodophenyl)-α-(4-methyl-4H-1,2,4-triazol-3-yl)-tetrazolo[1,5-a]quinazoline-7-methanol]: the melting point was found to be 201 °C.
